Data on 14 molecules can be found in PubChem BioAssay AID1963440 (Molecular Pharmacology Branch, DTP, NCI, 2024).

Several values for one entry are separate records, joined by “and”; a condition that tells them apart may be missing. Identical values can stand only once.

The assay has as its system NCI-H1417 complex spheroids, growth % test/control. Description: Anticancer human tumor NCI-H1417 cell line growth inhibition [Asc].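 As to all read-outs here: spheroids exposed to compounds for 7 days.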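 As to viability, T/C: 100% = DMSO vehicle control wells.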 Particulars: for viability, T/C: stronger effect = lower value. Here is the method: Multicellular complex tumor spheroid response to apoptosis pathway targeting inhibitors Alrizomadlin, Pelcitoclax, and Dasminapant in combination with a variety of drugs and investigational agents in selected tumor cell lines
The MDM2 inhibitor alrizomadlin, the Bcl-2/Bcl-xL inhibitor pelcitoclax, and the IAPs inhibitor dasminapant were evaluated both individually and in combination with standard of care and investigational anticancer small molecules within a complex spheroid model of solid tumors. . Complex spheroids include a stromal component modeled by human endothelial cells (HUVEC) and fibroblasts modeled by human mesenchymal stem cells (MSCs). The concentration ranges selected for each drug and investigational agent were based upon clinically achievable concentrations if the clinical Cmax of the agent was known.
Compounds. The drugs and investigational agents: alrizomadlin (APG-115; NSC831270), pelcitoclax (APG-1252; NSC835773), dasminapant (APG-1387;NSC834197), TAK-243 (NSC785004), copanlisib (NSC809693), olaparib (NSC753686), talazoparib (NSC767125), cobimetinib (NSC 768068), eltanexor (KPT-8602, NSC 794443), abemaciclib (NSC 768073), sotorasib (NSC818433), adagrasib (NSC 831453), MRTX-1133 (NSC 836407), Iadademestat (ORY1001, NSC 806812), and RMC-4630 (NSC839698), were obtained from the NCI Developmental Therapeutics Program Chemical Repository. The FDA-approved anticancer drug set is available from the Developmental Therapeutics Program at https://dtp.cancer.gov/organization/dscb/obtaining/available plates.htm. […] The stock solutions were prepared in dimethyl sulfoxide (DMSO, Sigma-Aldrich, St. Louis, MO, cat. D2650) at 800-fold the tested concentration and stored at -70 degrees C prior to their use. All drugs and investigational agents were tested over a range starting from a high concentration at or near the clinical Cmax and decreasing in half-log increments. If the clinical Cmax for an agent had not been determined, the highest concentration tested was 10 microM.
The patient-derived cancer (PDC) cell lines include five colon adenocarcinomas: 186277-243-T-J2-PDC, 616215-338-R-J1-PDC, 439559-082-T-J2-PDC, 463943-066-T-J2-PDC, and 519858-162-T-J1-PDC; three pancreatic carcinomas: 323965-272-R-J2-PDC, 521955-158-R6-J3-PDC, and 521955-158-R2-J5-PDC; two uterine sarcomas: 327498-152-R-J2-PDC and 993429-296-R-J1-PDC; two rhabdomyosarcomas: 755483-174-R-J1-PDC and 772245-204-R-J1-PDC; two soft tissue sarcomas: 126254-015-R-J1-PDC and 494315-158-R-J1-PDC; two malignant fibrous histiocytomas: 317291-083-R-J1-PDC and 596521-263-R-J1-PDC; two breast carcinomas: 171881-019-R-J1-PDC and 885512-296-R-J2-PDC; and one ovarian carcinoma: 6556581-035-R-J-PDC were obtained from the NCI PDMR, (https://pdmr.cancer.gov). The established cell lines HSSY-2 synovial sarcoma (RRID:CVCL 8719), SYO-1 synovial sarcoma (RRID:CVCL_7146), MPNST malignant peripheral neural sheath tumor were obtained from the Sloan Kettering Institute. The following established cell lines were purchased from the American Type Culture Collection (ATCC, Manassas, VA), Sor the received from the NCI repository:, PANC-1 pancreatic carcinoma (CRL-1469, RRID:CVCL_0480), OVCAR-5 ovarian carcinoma (RRID:CVCL_1628), OVCAR-8 ovarian carcinoma (RRID:CVCL_1629), , MCF-7 breast carcinoma (CRL-12584, RRID:CVCL_0031), MDA-MB-231 breast carcinoma (CRL-12532, RRID:CVCL_0062), NCI-H1876 small cell lung carcinoma (CRL-5902, RRID:CVCL_1503), NCI-H510A small cell lung carcinoma (HTB-184, RRID:CVCL_1565), NCI-H1417 (CRL-5869, RRID:CVCL_1469), and NCI-H196 small cell lung carcinoma (CRL-5823, RRID:CVCL_1509). Dr. Peter Houghton (Greehey Children's Cancer Research Institute, University of Texas Health Science Center, San Antonio, TX) provided Rh-18 rhabdomyosarcoma (RRID:CVCL_1659). Pooled donor human umbilical vein endothelial cells (HUVEC, Lonza, cat. CC-2519) and human mesenchymal stem cells (hMSC, Lonza, cat. PT-2501) were purchased from Lonza (Walkersville, MD).
Cell Culture. […]

[1] abbreviates: compound alone, run of 10/11/2022.

For orientation: viability, T/C means the result in the treated group divided by that in the control group, in per cent. For orientation: IC50 means the concentration needed to halve the response being measured. Turning to `C#Cc1c(F)ccc2cc(O)cc(-c3ncc4c(N5CC6CCC(C5)N6)nc(OCC56CCCN5CC(F)C6)nc4c3F)c12` (stereo not drawn), the viability, T/C was 93% and 102% and 110% (compound 0.0316 µM); 89.5% and 97.4% and 102% (compound 0.1 µM); 94.3% (2×) and 101% (compound 0.316 µM); 106% and 98.8% and 97.6% (compound 1 µM); 96.5% and 100% and 101% (compound 3.16 µM); 72.5% and 96.5% and 83% (compound 10 µM). Moreover, under “curve of compound”, the half-maximal inhibitory concentration (IC50) was more than 10000 nM.
Regarding `C=C(F)C(=O)N1CCN(c2nc(OCC3CCCN3C)nc3c2CCN(c2cccc4cccc(Cl)c24)C3)CC1CC#N` (stereo not drawn), the viability, T/C by setting is: (compound 0.0316 µM) 98.9% and 103% and 94.2%; (compound 0.1 µM) 106% and 101% and 88%; (compound 0.316 µM) 96.4% and 99.8% and 99.7%; (compound 1 µM) 90.7% and 84.8% and 90.3%; (compound 3.16 µM) 59.8% and 57.5% and 74.3%; (compound 10 µM) 0.26% and 0.27% and 0.31%. Besides, the IC50 (curve of compound) is 3830 nM and 3660 nM and 4610 nM.
Regarding `C=CC(=O)N1CCN(c2nc(=O)n(-c3c(C)ccnc3C(C)C)c3nc(-c4c(O)cccc4F)c(F)cc23)C(C)C1` (stereo not drawn), the viability, T/C is 111% and 108% and 110% (compound 0.0316 µM); 105% and 90.2% and 96.7% (compound 0.1 µM); 112% and 98.4% and 106% (compound 0.316 µM); 111% and 105% and 101% (compound 1 µM); 99.4% and 104% and 103% (compound 3.16 µM); 99.5% and 102% and 94.5% (compound 10 µM). The IC50 (curve of compound) is more than 10000 nM.
In the case of `CCN1C(C(=O)NC23CCC(C(=O)O)(CC2)CC3)C(c2cccc(Cl)c2F)C2(C(=O)Nc3cc(Cl)ccc32)C12CCCCC2` (stereo not drawn), the viability, T/C was 102% and 109% (compound 0.00949 µM); 102% [middle of 15 runs] (compound 0.03 µM); 101% [middle of 15 runs] (compound 0.0949 µM); 97.9% [middle of 15 runs] (compound 0.3 µM); 93.4% [middle of 15 runs] (compound 3 µM). Also, the IC50 runs as follows: under setting [1], more than 3000 nM; (curve of compound) more than 3000 nM.
As to `CCN1CCN(Cc2ccc(Nc3ncc(F)c(-c4cc(F)c5nc(C)n(C(C)C)c5c4)n3)nc2)CC1`, the viability, T/C by setting is: (compound 0.00316 µM) 99.3% and 89.7% and 102%; (compound 0.01 µM) 95.8% and 105% and 93.8%; (compound 0.0316 µM) 99.9% and 102% and 101%; (compound 0.1 µM) 96.5% and 111% and 105%; (compound 0.316 µM) 92.8% and 84.3% and 97.3%; (compound 1 µM) 91.7% and 81% and 79.7%. Also, under “curve of compound”, the IC50 is more than 1000 nM.
`CNC(C)C(=O)NC1CN(S(=O)(=O)c2cccc(S(=O)(=O)N3CCC4CCC(C(=O)NC(c5ccccc5)c5ccccc5)N4C(=O)C(NC(=O)C(C)NC)C3)c2)CCC2CCC(C(=O)NC(c3ccccc3)c3ccccc3)N2C1=O` (stereo not drawn): the viability, T/C (compound 0.00316 µM) is 95% and 113% and 107%; the viability, T/C (compound 0.01 µM) was 105% [middle of 14 runs]; the viability, T/C (compound 0.0316 µM) is 97.8% [middle of 13 runs]; the viability, T/C (compound 0.316 µM) is 96.8% [middle of 14 runs]; the viability, T/C (compound 1 µM) is 97.5% [middle of 14 runs]. Moreover, the IC50 runs as follows: (compound alone, run of 10/24/2022) more than 1000 nM; (compound alone, run of 11/15/2022) more than 1000 nM; (curve of compound) more than 1000 nM.
With `COc1c(OCCCN2CCOCC2)ccc2c3n(c(=NC(=O)c4cnc(N)nc4)nc12)CCN3`, the viability, T/C runs as follows: (compound 0.00316 µM) 94.5% and 101% and 96.7%; (compound 0.01 µM) 100% and 96.2% and 99%; (compound 0.0316 µM) 82.9% and 83.8% and 91.8%; (compound 0.1 µM) 76.9% and 73.8% and 90.3%; (compound 0.316 µM) 69% and 70.4% and 77.1%; (compound 1 µM) 54.8% and 47.9% and 64%. For the same molecule, the IC50 (curve of compound) is more than 1000 nM.
Turning to `Cc1c(S(C)(=O)=O)c(-c2cc(F)cc(N3CCN(c4ccc(NS(=O)(=O)c5ccc(NC(CCN6CCC(C(=O)OCCCP(=O)(O)O)CC6)CSc6ccccc6)c(S(=O)(=O)C(F)(F)F)c5)cc4)CC3)c2)c(-c2ccc(Cl)cc2)n1C(C)C` (stereo not drawn), the viability, T/C runs as follows: (compound 0.1 µM) 81.6% [middle of 14 runs]; (compound 0.316 µM) 50.6% [middle of 14 runs]; (compound 1 µM) 13.7% [middle of 14 runs]; (compound 3.16 µM) 3.19% [middle of 14 runs]; (compound 10 µM) 2.54% [middle of 12 runs]. The IC50 under setting [1] was 322 nM [middle of 14 runs].
`Cc1nc(N2CCC3(CC2)COC(C)C3N)c(CO)nc1Sc1ccnc(N)c1Cl` (stereo not drawn): the viability, T/C runs as follows: (compound 0.00949 µM) 83.4% and 92.6% and 92.5%; (compound 0.03 µM) 82.8% and 102% and 101%; (compound 0.0949 µM) 104% and 101% and 77.7%; (compound 0.3 µM) 112% and 84.2% and 93%; (compound 0.949 µM) 101% and 84% and 83.2%; (compound 3 µM) 76.5% and 70.5% and 76.4%. Besides, under “curve of compound”, the IC50 is more than 3000 nM.
In the case of `Cn1ncnc1[C@H]1c2n[nH]c(=O)c3cc(F)cc(c23)N[C@@H]1c1ccc(F)cc1`, the viability, T/C is, setting by setting: (compound 0.000316 µM) 101% and 113% and 97.4%; (compound 0.001 µM) 90.8% and 116% and 85%; (compound 0.00316 µM) 81.6% and 87.3% and 69.7%; (compound 0.01 µM) 70.8% and 75.9% and 67.2%; (compound 0.0316 µM) 56.4% and 77% and 57%; (compound 0.1 µM) 44% and 79.8% and 30.6%. In addition, the IC50 (curve of compound) was 58.2 nM and > 100 nM and 32.1 nM.
As to `NC(=O)C(=Cn1cnc(-c2cc(C(F)(F)F)cc(C(F)(F)F)c2)n1)c1cncnc1`, the viability, T/C is, setting by setting: (compound 0.000949 µM) 98.9% and 102% and 99.9%; (compound 0.003 µM) 99.9% and 106% and 107%; (compound 0.00949 µM) 89.7% and 96.8% and 104%; (compound 0.03 µM) 93% and 97.1% and 94.3%; (compound 0.0949 µM) 79.8% and 61.8% and 85.1%; (compound 0.3 µM) 25.3% and 22.2% and 44.6%. In addition, the IC50 (curve of compound) was 178 nM and 134 nM and 259 nM.
In the case of `NC1CCC(NC2CC2c2ccccc2)CC1` (stereo not drawn), the viability, T/C is, setting by setting: (compound 0.000316 µM) 94.2% and 90.8% and 94.6%; (compound 0.001 µM) 91.8% and 89.6% and 93.2%; (compound 0.00316 µM) 89.5% and 86.4% and 89.2%; (compound 0.01 µM) 83.2% and 78.4% and 87.9%; (compound 0.0316 µM) 89% and 84.6% and 88.3%; (compound 0.1 µM) 82.3% and 78.4% and 97.6%. In addition, the IC50 (curve of compound) is more than 100 nM.
For `O=C(c1cc(Cc2n[nH]c(=O)c3ccccc23)ccc1F)N1CCN(C(=O)C2CC2)CC1`, the viability, T/C is, setting by setting: (compound 0.0316 µM) 96.7% and 102% and 86.3%; (compound 0.1 µM) 106% and 90.7% and 91.3%; (compound 0.316 µM) 89.8% and 84.6% and 86.3%; (compound 1 µM) 80.9% and 84.3% and 99.2%; (compound 3.16 µM) 56.5% and 56.2% and 71%; (compound 10 µM) 38.3% and 24.6% and 36%. The half-maximal inhibitory concentration (IC50) (curve of compound) was 4830 nM and 4200 nM and 6310 nM.
Take `O=C(c1ccc(F)c(F)c1Nc1ccc(I)cc1F)N1CC(O)([C@@H]2CCCCN2)C1`: the viability, T/C by setting is: (compound 0.00316 µM) 89.8% and 105% and 96.8%; (compound 0.01 µM) 99.2% and 107% and 97.3%; (compound 0.0316 µM) 84.4% and 103% and 97.9%; (compound 0.1 µM) 89% and 98.1% and 116%; (compound 0.316 µM) 88.8% and 94.5% and 97.2%; (compound 1 µM) 65.3% and 83.7% and 98.2%. The IC50 (curve of compound) is more than 1000 nM.
